Measurements: article PMC3991326, “Optimal Translational Termination Requires C4 Lysyl Hydroxylation of eRF1” (Molecular Cell, 2014)

Molecular target: T1, Jmjd4 (Homo sapiens, UniProt Q9H9V9)
T1 construct: recombinant from E. coli, Ni-NTA purified
T1 sequence (Q9H9V9 1-417): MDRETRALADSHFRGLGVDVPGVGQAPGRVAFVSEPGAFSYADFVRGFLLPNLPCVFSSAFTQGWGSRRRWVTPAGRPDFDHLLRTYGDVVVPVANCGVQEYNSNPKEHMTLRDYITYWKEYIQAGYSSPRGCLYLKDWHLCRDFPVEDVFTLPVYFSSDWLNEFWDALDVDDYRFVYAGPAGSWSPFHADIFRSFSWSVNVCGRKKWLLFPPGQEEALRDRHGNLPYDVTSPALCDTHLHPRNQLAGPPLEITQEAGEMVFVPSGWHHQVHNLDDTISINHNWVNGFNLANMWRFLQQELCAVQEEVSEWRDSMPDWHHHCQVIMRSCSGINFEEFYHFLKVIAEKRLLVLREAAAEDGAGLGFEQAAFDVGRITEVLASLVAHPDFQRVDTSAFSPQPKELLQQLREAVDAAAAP
Experiment: in vitro hydroxylation of recombinant eRF1 K63
Format: biochemical
Conditions: eRF1 as prime substrate; Fe(II), 2OG; competitive with 2OG (stated for 2OG oxygenases in general)

For O=C(O)CNC(=O)C(=O)O [NOG], the “in vitro hydroxylation of recombinant eRF1 K63” value was “eRF1 K63 hydroxylation was significantly impaired by a 2OG competitive inhibitor (NOG, N-Oxalylglycine)”.
